Data published in patent US20230416245A1, “ADENOSINE ANALOGS FOR THE TREATMENT OF DISEASE” (BIOINTERVENE, INC., priority 2020, published 2023).

Molecular target: ADORA3 (Homo sapiens (Human), UniProt P0DMS8)
Assay: Intracellular calcium release assay (FLIPR)
Format: cell-based
Details: for EC50: CHO-K1 cells, Fluo-4, top concentration 10 μM, read-out: Cell Calcium Assay EC50; for Cell Calcium Efficacy (%): percentage of the response to NECA
Method in brief: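 Cells stably expressing ADORA3 (20,000/well, 16–20 h) were loaded with Fluo-4 Direct plus 2.5 mM probenecid for 50 min at 37 °C and 10 min at RT. Compounds (10-point, 3-fold series) were added on FLIPR and the Max–Min fluorescence taken. Activation % was set against high-agonist and DMSO wells, with variable-slope EC50 and efficacy relative to NECA.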

Sequence of ADORA3 (P0DMS8 whole entry): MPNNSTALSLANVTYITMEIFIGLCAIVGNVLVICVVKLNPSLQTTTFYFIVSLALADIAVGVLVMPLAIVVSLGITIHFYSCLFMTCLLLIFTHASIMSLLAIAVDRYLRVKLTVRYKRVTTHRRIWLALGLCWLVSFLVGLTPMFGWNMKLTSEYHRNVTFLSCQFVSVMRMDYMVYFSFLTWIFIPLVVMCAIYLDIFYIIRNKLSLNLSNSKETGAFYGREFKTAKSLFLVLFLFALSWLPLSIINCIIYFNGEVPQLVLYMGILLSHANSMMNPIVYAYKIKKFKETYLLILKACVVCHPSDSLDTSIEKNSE

| SMILES | EC50 | Cell Calcium Efficacy (%) |
| --- | --- | --- |
| O[C@@H]1[C@H](O)[C@@H]2C[C@@H]2[C@H]1n1cnc2c(NCC(F)F)nc(Cl)nc21 [Compound 35, (1R,2R,3S,4R,5S)-4-(2-chloro-6-((2,2-difluoroethyl)amino)-9H-purin-9-yl)bicyclo[3.1.0]hexane-2,3-diol] | 4.7 nM | 46.8% |
| O[C@@H]1[C@H](O)[C@@H]2C[C@@H]2[C@H]1n1cnc2c(NCC(F)F)cc(Cl)nc21 [Compound 40, (1R,2R,3S,4R,5S)-4-(5-chloro-7-((2,2-difluoroethyl)amino)-3H-imidazo[4,5-b]pyridin-3-yl)bicyclo[3.1.0]hexane-2,3-diol] | 6.1 nM | 55.9% |
| CCNc1cc(C#CC2CC2)nc2c1ncn2[C@H]1[C@H](O)[C@H](O)[C@@H]2C[C@@H]21 [Compound 46, (1R,2R,3S,4R,5S)-4-(5-(cyclopropylethynyl)-7-(ethylamino)-3H-imidazo[4,5-b]pyridin-3-yl)bicyclo[3.1.0]hexane-2,3-diol] | ≥ 10000 nM | 4.8% |
| Cc1c(Cl)nc2c(ncn2[C@H]2[C@H](O)[C@H](O)[C@@H]3C[C@@H]32)c1NCC(F)F [Compound 60, (1R,2R,3S,4R,5S)-4-(5-chloro-7-((2,2-difluoroethyl)amino)-6-methyl-3H-imidazo[4,5-b]pyridin-3-yl)bicyclo[3.1.0]hexane-2,3-diol] | > 10000 nM | 10% |
